Laboratory results as given in patent US20200113910A1, “TRIAZINETRIONE DERIVATIVES AND THEIR USE AS MODULATORS OF NEUROTROPHIN RECEPTOR AND RECEPTOR TYROSINE KINASES” (ALZECURE PHARMA AB, priority 2016, published 2020).

Columns and labels:
[1] = test system: ephrin type-B receptor 2 (EphB2); conditions: Suzuki et al., FEBS Open Bio 2016; cited from earlier work
FGFR1 = target: T1, FGFR1 (Homo sapiens, UniProt P11362); test: Enzyme Fragment Complementation cell-based assay, FGFR1; conditions: U2OS-cells expressing FGFR1; ligand bFGF 10 ng/mL
T1 construct: expressed in transfected cells; host or cells: U2OS (cryopreserved)
Excerpt: (§1) The assay uses Enzyme Fragment Complementation (EFC) technique, which is a proximity-based assay. Briefly, cells used in this assay over-express two fusion proteins, i.e. the receptor, which can be either one of TrkA, TrkB, TrkC, IGF1R or FGFR1, fused to a small peptide of 8-galactosidase and an adaptor protein, i.e. SHC1 (or any other Trk-adaptor protein) fused to the major part of 8-galactosidase. […] The proximity between the small activating peptide on the receptor and the major part of 8-galactosidase on the adaptor protein leads to an active 8-galactosidase enzyme. The activation of the receptor is quantified by measuring the amount of active 8-galactosidase by its conversion of a non-luminescent substrate into a luminescent product.
(§2) U2OS-cells, over-expressing TrkA or TrkB or TrkC, are plated in 96- or 384-well plates and incubated overnight. Alternatively, cryopreserved HEK293-cells expressing IGFR1 or cryopreserved U2OS-cells expressing FGFR1 were plated in 96- or 384-well plates. On the following day, test compound was pre-mixed with ligand (NGF, BDNF, NT-3, IGF-1 or basic fibroblast growth factor (bFGF(FGF-2))) and the ligand-compound mixture is then added to the cells to yield a final ligand concentration of typically 10 ng/mL (or as indicated in FIGS. 3 and 4). After 3 hours of incubation at room temperature, the incubation is stopped by the addition of a β-galactosidase substrate mixture containing detergents. The substrate mixture is incubated for 60 minutes at ambient temperature. The luminescence is thereafter read by the use of a plate reader.
(§3) The potency is expressed as EC50 (pM) and the efficacy as % stimulation over 10 ng/mL of ligand . The ligands used was: NGF (for TrkA assay), BDNF (for TrkB assay), NT-3 (for TrkC assay) bFGF (for FGFR1 assay), IGF-1 (for IGFR1 assay), respectively.

TrkC = target: T2, TrkC (Homo sapiens, UniProt Q16288); test: Enzyme Fragment Complementation cell-based assay, TrkC; conditions: U2OS-cells over-expressing TrkC; ligand NT-3 10 ng/mL
T2 construct: expressed in transfected cells; host or cells: U2OS
Excerpt: (§4) A high throughput cell-based screen has been used to identify positive modulators of TrkA, TrkB and TrkC. The screen involves the use of cell-based assay overexpressing TrkA, TrkB or TrkC. The purpose of the assay is to identify compounds that modulate neurotrophin signalling (Forsell et al 2012). The assay can be used in inhibitor mode using a high concentration of ligand, in modulator mode using an intermediate concentration and in agonist mode using a low concentration of ligand.
as §1, §2, §3

TrkB = target: T3, TrkB (Homo sapiens, UniProt Q16620); test: Enzyme Fragment Complementation cell-based assay, TrkB; conditions: for TrkB efficacy, % stimulation over 10 ng/mL of ligand: U2OS-cells over-expressing TrkB, ligand BDNF 10 ng/mL
T3 construct: expressed in transfected cells; host or cells: U2OS
Excerpt: as §4, §1, §2, §3

C57/BI6 mice [2] = test: Passive avoidance task, scopolamine-treated mice (Example 1); assay type: in vivo; conditions: 20 mg/kg i.p. once per day for 4 days; scopolamine 0.3 mg/kg s.c.; FIG. 1
Procedure: (§5) Passive avoidance (PA) is an aversive learning task based on classical (Pavlovian) fear conditioning that allows for analysis of both facilitation and impairment of memory function by adjusting the unconditioned stimulus, i.e. the electrical foot shock. Commonly a cognitive-impairing agent is administered to the animals to mimic the neurochemical disturbances present in various cognitive disorders e.g. cholinergic (scopolamine) and glutamatergic (MK-801) deficits.
(§6) Prior to testing, the animals are brought to the experimental room where they were allowed to habituate for 60 min. The test is conducted using a modified shuttle box with two communicating compartments of equal size with a small sliding door built into the separating wall and a stainless steel bar floor. One of the compartments is not illuminated and thus black whereas the other compartment (the light one) is illuminated by an electric bulb, installed on the top of a plexiglass cover. The PA training is conducted in a single session. […] Latency to cross over into the dark compartment (training latency) is recorded. […] The latency to cross over into the dark compartment with all four feet is measured (retention latency) as well as time in bright compartment and a number of other relevant parameters (e.g. number of visits in the dark compartment). […]

[3] = test system: cellular prion protein (PrP^C); conditions: Suzuki et al., FEBS Open Bio 2016; cited from earlier work
IGF1R = target: T4, IGF1R (Homo sapiens, UniProt P08069); test: Enzyme Fragment Complementation cell-based assay, IGF1R; conditions: HEK293-cells expressing IGFR1; ligand IGF-1 10 ng/mL
T4 construct: expressed in transfected cells; host or cells: HEK293 (cryopreserved)
Excerpt: as §1, §2, §3

TrkA = target: T5, TrkA (Homo sapiens, UniProt P04629); test: Enzyme Fragment Complementation cell-based assay, TrkA; conditions: U2OS-cells over-expressing TrkA; ligand NGF 10 ng/mL
T5 construct: expressed in transfected cells; host or cells: U2OS
Excerpt: as §4, §1, §2, §3

C57/BI6 mice [4] = test: Passive avoidance task, MK-801-treated mice (Example 2); assay type: in vivo; conditions: different doses i.p. once per day for 4 days; MK-801 0.3 mg/kg s.c.; FIG. 2
Procedure: as §5, §6

[5] = FIG. 3, cells stimulated with or without BDNF

T3 sequence (Q16620 32-822): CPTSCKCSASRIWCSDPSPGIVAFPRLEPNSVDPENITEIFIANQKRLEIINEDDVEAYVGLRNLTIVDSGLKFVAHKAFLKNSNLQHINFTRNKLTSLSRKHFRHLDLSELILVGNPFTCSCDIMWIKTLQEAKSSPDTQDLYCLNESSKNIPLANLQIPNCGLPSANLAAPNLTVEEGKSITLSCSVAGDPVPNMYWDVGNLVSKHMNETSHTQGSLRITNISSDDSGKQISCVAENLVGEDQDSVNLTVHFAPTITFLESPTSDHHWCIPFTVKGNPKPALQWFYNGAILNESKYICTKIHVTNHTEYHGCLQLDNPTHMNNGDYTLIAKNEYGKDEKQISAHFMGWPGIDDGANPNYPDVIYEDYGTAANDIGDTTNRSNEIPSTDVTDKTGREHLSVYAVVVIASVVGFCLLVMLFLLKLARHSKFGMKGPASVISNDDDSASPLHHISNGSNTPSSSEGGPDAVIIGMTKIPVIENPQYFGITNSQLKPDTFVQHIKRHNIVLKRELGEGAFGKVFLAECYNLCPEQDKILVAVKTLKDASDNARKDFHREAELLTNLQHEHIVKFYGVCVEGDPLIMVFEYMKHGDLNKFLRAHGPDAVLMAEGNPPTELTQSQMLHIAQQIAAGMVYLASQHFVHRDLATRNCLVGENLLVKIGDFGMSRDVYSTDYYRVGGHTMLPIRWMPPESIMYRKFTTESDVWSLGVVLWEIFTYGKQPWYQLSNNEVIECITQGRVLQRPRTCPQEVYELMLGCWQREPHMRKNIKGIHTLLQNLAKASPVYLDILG
T5 sequence (P04629 33-796): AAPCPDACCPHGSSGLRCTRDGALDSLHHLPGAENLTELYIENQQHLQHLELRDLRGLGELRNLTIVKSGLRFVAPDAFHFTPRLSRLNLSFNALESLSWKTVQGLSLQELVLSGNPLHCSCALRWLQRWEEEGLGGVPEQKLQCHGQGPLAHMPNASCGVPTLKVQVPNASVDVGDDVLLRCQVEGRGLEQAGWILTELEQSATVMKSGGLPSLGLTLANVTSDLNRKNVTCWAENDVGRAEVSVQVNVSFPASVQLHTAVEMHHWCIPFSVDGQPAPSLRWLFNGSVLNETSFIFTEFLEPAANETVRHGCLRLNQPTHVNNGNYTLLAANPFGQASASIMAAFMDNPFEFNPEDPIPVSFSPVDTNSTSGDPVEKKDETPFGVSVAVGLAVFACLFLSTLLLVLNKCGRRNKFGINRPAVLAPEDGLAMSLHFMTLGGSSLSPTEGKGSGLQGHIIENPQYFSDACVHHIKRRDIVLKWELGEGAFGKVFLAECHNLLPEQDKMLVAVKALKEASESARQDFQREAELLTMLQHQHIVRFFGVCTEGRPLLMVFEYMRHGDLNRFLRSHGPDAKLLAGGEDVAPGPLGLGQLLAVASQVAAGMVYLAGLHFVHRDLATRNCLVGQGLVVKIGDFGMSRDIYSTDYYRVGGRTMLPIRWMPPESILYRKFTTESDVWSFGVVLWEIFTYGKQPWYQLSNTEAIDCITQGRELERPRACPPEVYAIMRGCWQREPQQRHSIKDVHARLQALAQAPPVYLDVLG
T4 sequence (P08069 31-736 limits assumed): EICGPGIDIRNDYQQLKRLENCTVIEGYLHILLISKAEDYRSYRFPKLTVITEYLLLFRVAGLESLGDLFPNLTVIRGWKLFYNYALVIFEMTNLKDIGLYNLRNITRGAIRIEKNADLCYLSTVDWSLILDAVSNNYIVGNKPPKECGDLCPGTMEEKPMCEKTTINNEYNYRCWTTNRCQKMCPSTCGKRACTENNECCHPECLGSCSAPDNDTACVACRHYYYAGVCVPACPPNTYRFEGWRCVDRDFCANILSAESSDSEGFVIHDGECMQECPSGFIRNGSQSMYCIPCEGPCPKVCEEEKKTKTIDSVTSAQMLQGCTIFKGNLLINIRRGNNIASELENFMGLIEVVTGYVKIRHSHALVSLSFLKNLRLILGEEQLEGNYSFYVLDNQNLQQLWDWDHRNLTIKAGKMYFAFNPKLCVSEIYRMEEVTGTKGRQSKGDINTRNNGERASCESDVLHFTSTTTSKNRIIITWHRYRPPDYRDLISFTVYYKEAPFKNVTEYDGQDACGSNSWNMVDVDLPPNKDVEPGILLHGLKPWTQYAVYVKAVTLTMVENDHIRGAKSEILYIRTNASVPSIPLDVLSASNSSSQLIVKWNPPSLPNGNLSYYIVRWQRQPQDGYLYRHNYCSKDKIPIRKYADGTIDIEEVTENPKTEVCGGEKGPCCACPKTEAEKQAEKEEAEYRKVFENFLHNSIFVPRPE
T4 sequence (P08069 741-1367 limits assumed): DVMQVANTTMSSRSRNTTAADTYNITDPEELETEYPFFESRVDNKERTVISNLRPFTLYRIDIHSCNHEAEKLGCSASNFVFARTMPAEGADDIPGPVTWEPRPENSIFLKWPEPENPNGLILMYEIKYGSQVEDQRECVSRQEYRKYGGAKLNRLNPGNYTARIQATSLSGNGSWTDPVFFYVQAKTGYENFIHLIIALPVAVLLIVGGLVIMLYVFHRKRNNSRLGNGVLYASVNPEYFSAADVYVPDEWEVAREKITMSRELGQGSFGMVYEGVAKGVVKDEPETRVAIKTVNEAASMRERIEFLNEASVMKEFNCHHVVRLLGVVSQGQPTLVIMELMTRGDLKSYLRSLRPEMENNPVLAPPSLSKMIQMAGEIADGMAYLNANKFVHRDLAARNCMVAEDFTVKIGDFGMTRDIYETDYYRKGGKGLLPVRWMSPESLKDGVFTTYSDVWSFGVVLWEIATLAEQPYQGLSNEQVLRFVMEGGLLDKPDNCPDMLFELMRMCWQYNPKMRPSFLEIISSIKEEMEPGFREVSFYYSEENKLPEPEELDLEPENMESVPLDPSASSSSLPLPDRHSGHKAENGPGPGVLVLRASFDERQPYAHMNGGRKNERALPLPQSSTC
T2 sequence (Q16288 32-839): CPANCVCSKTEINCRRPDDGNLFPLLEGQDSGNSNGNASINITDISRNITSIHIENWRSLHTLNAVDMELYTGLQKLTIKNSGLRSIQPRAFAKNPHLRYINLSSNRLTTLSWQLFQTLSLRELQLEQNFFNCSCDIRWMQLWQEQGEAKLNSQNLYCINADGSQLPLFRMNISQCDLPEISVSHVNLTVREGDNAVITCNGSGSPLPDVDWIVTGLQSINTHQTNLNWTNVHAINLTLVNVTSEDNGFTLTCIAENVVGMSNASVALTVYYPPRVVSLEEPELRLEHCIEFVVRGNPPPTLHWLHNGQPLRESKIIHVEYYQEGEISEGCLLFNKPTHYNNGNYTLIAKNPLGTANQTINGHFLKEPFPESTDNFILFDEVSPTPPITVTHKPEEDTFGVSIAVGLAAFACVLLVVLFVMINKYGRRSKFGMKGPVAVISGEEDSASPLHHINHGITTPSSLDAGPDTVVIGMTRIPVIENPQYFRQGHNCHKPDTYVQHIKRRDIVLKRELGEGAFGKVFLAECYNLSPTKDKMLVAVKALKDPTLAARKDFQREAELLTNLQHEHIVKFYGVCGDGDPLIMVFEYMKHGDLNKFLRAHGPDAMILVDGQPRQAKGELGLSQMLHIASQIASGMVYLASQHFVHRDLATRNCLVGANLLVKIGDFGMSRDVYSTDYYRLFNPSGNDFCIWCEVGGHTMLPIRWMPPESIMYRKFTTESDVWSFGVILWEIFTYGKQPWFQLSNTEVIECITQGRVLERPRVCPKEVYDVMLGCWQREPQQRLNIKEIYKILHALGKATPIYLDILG
T1 sequence (P11362 22-822): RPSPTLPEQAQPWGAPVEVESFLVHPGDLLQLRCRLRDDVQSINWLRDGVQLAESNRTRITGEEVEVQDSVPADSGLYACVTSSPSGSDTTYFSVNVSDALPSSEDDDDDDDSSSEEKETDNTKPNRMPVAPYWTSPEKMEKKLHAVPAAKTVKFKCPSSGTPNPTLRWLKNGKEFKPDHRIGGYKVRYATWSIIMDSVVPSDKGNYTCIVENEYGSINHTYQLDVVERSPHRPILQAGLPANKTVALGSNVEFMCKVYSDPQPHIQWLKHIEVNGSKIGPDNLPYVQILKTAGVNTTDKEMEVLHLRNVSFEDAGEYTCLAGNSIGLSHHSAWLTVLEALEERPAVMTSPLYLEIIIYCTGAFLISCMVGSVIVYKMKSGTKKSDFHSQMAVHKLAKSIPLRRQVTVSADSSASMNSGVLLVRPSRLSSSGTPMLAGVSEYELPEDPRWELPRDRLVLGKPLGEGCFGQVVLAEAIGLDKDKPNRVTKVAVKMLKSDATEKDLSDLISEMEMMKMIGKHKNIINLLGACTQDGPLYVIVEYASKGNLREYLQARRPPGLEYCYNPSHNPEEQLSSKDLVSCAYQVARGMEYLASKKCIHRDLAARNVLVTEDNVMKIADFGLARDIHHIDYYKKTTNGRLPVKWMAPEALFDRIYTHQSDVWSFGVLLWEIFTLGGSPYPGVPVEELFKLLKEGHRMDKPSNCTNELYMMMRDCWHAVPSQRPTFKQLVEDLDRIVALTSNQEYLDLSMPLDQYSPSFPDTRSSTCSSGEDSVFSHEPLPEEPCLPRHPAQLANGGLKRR

Structure (SMILES)	inhibition of binding of β-amyloid oligomers to EphB2 [1]	FGFR1 efficacy, % stimulation over 10 ng/mL of ligand (FGFR1)	TrkC efficacy, % stimulation over 10 ng/mL of ligand (TrkC)	decrease of activity at the two highest concentrations tested, TrkB expressing cells (TrkB; [5])	dose-response curve with BDNF as ligand in TrkB expressing cells (TrkB; [5])	TrkB efficacy, % stimulation over 10 ng/mL of ligand (TrkB)	retention latency in passive avoidance task (cognitive function) (C57/BI6 mice [2])	inhibitory activity at the cellular prion protein (PrP^C) [3]	IGF1R efficacy, % stimulation over 10 ng/mL of ligand (IGF1R)	TrkA efficacy, % stimulation over 10 ng/mL of ligand (TrkA)	total time spent in bright compartment in passive avoidance task (cognitive function) (C57/BI6 mice [4])
Cc1cc(-n2c(=O)[nH]c(=O)n(C)c2=O)ccc1Oc1ccc(SC(F)(F)F)cc1 [Compound 1, 1-methyl-3-(3-methyl-4-{4-[(trifluoromethyl)sulfanyl]phenoxy}phenyl)-1,3,5-triazinane-2,4,6-trione]	30%	73%	87%	significantly decreases	no clear dose-response curve	124%	increased retention latency	lack of similar inhibitory activity	83%	109%	
Cc1cc(-n2c(=O)[nH]c(=O)n(C)c2=O)ccc1Oc1ccc(S(=O)(=O)C(F)(F)F)cc1 [Compound 2, 1-methyl-3-[3-methyl-4-(4-trifluoromethanesulfonylphenoxy)phenyl]-1,3,5-triazinane-2,4,6-trione]		43%	70%	not observed		232%			25%	138%	increased time spent in the bright area
Cc1cc(-n2c(=O)[nH]c(=O)n(C)c2=O)ccc1Oc1ccc([S+]([O-])C(F)(F)F)cc1 (centres unmarked) [Compound 3, 1-methyl-3-[3-methyl-4-(4-trifluoromethanesulfinylphenoxy)phenyl]-1,3,5-triazinane-2,4,6-trione]		102%	74%	not observed		196%			109%	143%	
Cc1cc(-n2c(=O)[nH]c(=O)n(-c3ccccc3)c2=O)ccc1Oc1ccc([S+]([O-])C(F)(F)F)cc1 (centres unmarked) [Compound 4, 1-[3-methyl-4-(4-trifluoromethanesulfinylphenoxy)phenyl]-3-phenyl-1,3,5-triazinane-2,4,6-trione]			69%			217%				128%	
Cc1cc(-n2c(=O)[nH]c(=O)n(-c3ccccc3)c2=O)ccc1Oc1ccc(SC(F)(F)F)cc1 [Compound 5, 1-(3-methyl-4-{4-[(trifluoromethyl)sulfanyl]phenoxy}phenyl)-3-phenyl-1,3,5-triazinane-2,4,6-trione]			84%			210%				112%	
Cc1cc(-n2c(=O)[nH]c(=O)n(-c3ccccc3)c2=O)ccc1Oc1ccc(S(=O)(=O)C(F)(F)F)cc1 [Compound 6, 1-[-3-methyl-4-(4-trifluoromethanesulfonylphenoxy)phenyl]-3-phenyl-1,3,5-triazinane-2,4,6-trione]			124%			300%				147%	
